Test results reported in US8105431B2, “Subphthalocyanine derivative having phosphorus derivative as axially substituted group, method for manufacturing the same and optical film using the same” (Orient Chemical Industries, Ltd., priority 2008, dated 2012).

Columns and labels:
Type in all cases: physicochemical
[1] = Solubility to methyl ethyl ketone; settings: for solubility (in words): compared with the halo boron intermediate compounds
[2] = Absorption measurement in chloroform (maximum absorption wavelength, molar absorbance coefficient); settings: for Molar Absorbance Coefficient: 1 cm cell
Experimental: Measuring methods of the molar absorbance coefficient of the subphthalocyanine derivatives having the phosphorus derivative-substituted group obtained in the Examples 1-9 and the halo boron subphthalocyanine obtained in Synthesis Examples 1-4 were carried out as follows.
10.0 mg of the obtained compound was completely dissolved in 100 ml of chloroform. Then 10 ml of the solution was diluted with 100 ml of chloroform. Thus the absorbance of the obtained solution was measured using spectrophotometer (UV-1700 available from Shimadzu Corporation). Molar absorbance coefficient • was calculated using the following equation: A=•×C×l (A: absorbance, C: concentration (mol/L), l: light path (cm)) In the measurement, light pass length of the cell is 1 cm long.

[3] = Dissolution in coating solution for film manufacture; settings: 0.5 parts in 68.5 parts cyclohexanone and 30 parts methyl ethyl ketone with 1.0 parts polycarbonate
Experimental: 0.5 parts of Compound 1 obtained in Example 1 and 1.0 parts of polycarbonate were added into 68.5 parts of cyclohexanone and 30 parts of methyl ethyl ketone and stirred and dissolved to obtain a coating solution.
A film was manufactured in the same way as in Example 10 except that Intermediate Compound 1 obtained in Synthesis Example 1 was used in place of Compound 1 in Example 10.

Compound	Solubility ([1]; Solvent: Methyl Ethyl Ketone)	solubility (in words) ([1]; methyl ethyl ketone)	Maximum Absorption Wavelength [2]	Molar Absorbance Coefficient [2]	Solubility ([1]; methyl ethyl ketone)	dissolution in coating liquid [3]
O=P(OB1n2c3c4ccccc4c2/N=C2N=C(/N=c4/c5ccccc5c(n41)=N3)c1ccccc1\2)(c1ccccc1)c1ccccc1 [Compound 1, SubPcBOPOPh2]	0.44 wt %	remarkably improved	564.0 nm	7.69 ×10^−4 Lmol^−1cm^−1	–	–
O=P(OB1n2c3c4ccccc4c2/N=C2N=C(/N=c4/c5ccccc5c(n41)=N3)c1ccccc1\2)(Oc1ccccc1)Oc1ccccc1 [Compound 3, SubPcBOPO(OPh)2]	0.34 wt %	remarkably improved	564.5 nm	6.96 ×10^−4 Lmol^−1cm^−1	–	–
CCCCOP(=O)(OCCCC)OB1n2c3c4ccccc4c2/N=C2N=C(/N=c4/c5ccccc5c(n41)=N3)c1ccccc1\2 [Compound 4, SubPcBOPO(OBu)2]	>10 wt %	remarkably improved	562.5 nm	7.78 ×10^−4 Lmol^−1cm^−1	more than 10 % by weight	–
ClB1n2c3c4ccccc4c2/N=C2N=C(/N=c4/c5ccccc5c(n41)=N3)c1ccccc1\2 [Intermediate Compound 1, SubPcBCl, reference compound]	0.003 wt %	–	565.0 nm	5.10 ×10^−4 Lmol^−1cm^−1	–	could not be fully dissolved
(PhS)3SubPcBCl [Intermediate Compound 11, reference compound]	–	–	586.0 nm	7.58 ×10^−4 Lmol^−1cm^−1	–	–
(PhS)3SubPcBOPO(OBu)2 [Compound 26]	>10 wt %	–	584.0 nm	9.95 ×10^−4 Lmol^−1cm^−1	–	–
(PhS)3SubPcBOPOPh2 [Compound 24]	>10 wt %	–	584.5 nm	7.24 ×10^−4 Lmol^−1cm^−1	–	–
(i-C5H11S)3 SubPcBCl [Intermediate Compound 6, reference compound]	–	–	587.5 nm	5.82 ×10^−4 Lmol^−1cm^−1	–	–
(i-C5H11S)3SubPcBOPO(OPh)2 [Compound 13]	–	–	586.5 nm	8.20 ×10^−4 Lmol^−1cm^−1	–	–
(i-C5H11S)3SubPcBOPOPh2 [Compound 11]	>10 wt %	–	586.0 nm	7.12 ×10^−4 Lmol^−1cm^−1	–	–
(t-Bu)3 SubPcBCl [Intermediate Compound 2, reference compound]	>10 wt %	–	–	–	–	–
(t-Bu)3SubPcBOPO(OBu)2 [Compound 7]	>10 wt %	–	568.0 nm	7.62 ×10^−4 Lmol^−1cm^−1	–	–
(t-Bu)3SubPcBOPOPh2 [Compound 5]	>10 wt %	–	570.5 nm	8.74 ×10^−4 Lmol^−1cm^−1	–	–
